Assay results as given in patent US9943576B2 (priority 2014, dated 2018).

Key:
Assay type in all cases: cell-based
[1] = system: human uroepithelial cells
[2] = system: human uroepithelial cells; remark: listed apart in the source
[3] = system: human uroepithelial cells; remark: listed apart in the source

Molecule: CCOCCOCCO [Diethylene glycol mono-ethyl ether]
- Typical Results [1]: No Effect

Molecule: CCCCCCCC/C=C\CCCCCCCC(=O)OCCOCC(OCCO)C1OCC(OCCO)C1OCCO (stereo not shown) [Tween 80]
- Typical Results [1]: Increase (Dose response)

Molecule: octyl phenol ethoxylate [Triton-X100]
- Typical Results [1]: Increase (Dose response)
- increase vs saline in the amount of BoNT/A that permeated the in vitro urothelium [2]: 3.6 fold

Molecule: OCc1ccccc1 [Benzyl Alcohol]
- Typical Results [1]: Slight Increase (1% at 2

Molecule: Poly-L-lysine Hydrobromide
- Typical Results [1]: Increase (Dose response)

Molecule: Benzalkonium bromide
- Typical Results [1]: No Effect

Molecule: Protamine sulfate
- Typical Results [1]: Inhibited

Molecule: Poly-L-Arginine
- Typical Results [1]: Inhibited

Molecule: O=C(O)CN(CCN(CC(=O)O)CC(=O)O)CC(=O)O [EDTA]
- Typical Results [1]: Increase
- penetration of fluorescent gelatin, RFU relative to untreated control [3]: 300%

Molecule: Nonoxynol 9
- Typical Results [1]: Increase (Dose response)
- increase vs saline in the amount of BoNT/A that permeated the in vitro urothelium [2]: 3 fold
